Measured values taken from patent US20030215462A1, “Use of UGT inhibitors to increase bioavailability” (priority 2001, published 2003).
pIC50: −log10 of the molar value. Where “and” joins values, the source holds several entries; their conditions need not be identical. Identical values can stand only once.

Assays:
[1] = target: T1, UGT enzymes of human liver microsomes; experiment: Inhibition of 7-HFC glucuronidation in human liver microsomes; type: biochemical; conditions: for % of control metabolism (SD, n = 3), 7-HFC glucuronidation: human liver microsomes 100 μg/ml
T1 construct: percentage of control metabolism, 7-HFC glucuronidation; percentage of control metabolism, 7-HFC glucuronidation

UGT1A9 = target: T2, UGT1A9 (Homo sapiens, UniProt O60656); experiment: Inhibition of raloxifene glucuronidation by recombinant UGT1A9 Supersomes; conditions: for activity at 15 min, 50 µM: human, Supersomes with recombinant human UGT1A9, pH 7.5, probe raloxifene 50 μM
T2 sequence (O60656 26-530): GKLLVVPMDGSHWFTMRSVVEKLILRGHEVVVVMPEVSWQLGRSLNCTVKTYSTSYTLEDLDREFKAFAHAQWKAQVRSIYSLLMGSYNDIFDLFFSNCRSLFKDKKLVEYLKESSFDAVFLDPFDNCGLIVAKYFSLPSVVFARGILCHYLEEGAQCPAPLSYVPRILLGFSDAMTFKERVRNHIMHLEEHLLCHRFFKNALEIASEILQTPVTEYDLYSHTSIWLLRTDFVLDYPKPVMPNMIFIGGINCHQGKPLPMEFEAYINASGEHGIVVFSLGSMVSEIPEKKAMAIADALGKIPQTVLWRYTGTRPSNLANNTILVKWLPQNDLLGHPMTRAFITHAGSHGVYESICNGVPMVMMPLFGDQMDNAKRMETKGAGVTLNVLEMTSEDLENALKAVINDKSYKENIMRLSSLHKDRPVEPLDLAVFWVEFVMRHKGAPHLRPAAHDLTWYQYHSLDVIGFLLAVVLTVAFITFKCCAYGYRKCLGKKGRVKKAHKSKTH
Procedure: (§1) Compounds were eluted using a binary solvent gradient system. Solvent A was water brought to pH 8 with NH4OH. Solvent B was methanol. Solvent flow rate was 1 ml/min and the column temperature was maintained at 50° C. Detection was at 280 nm. […] The system was then returned to the initial conditions and equilibrated for 3 min.

[2] = target: T3, UGT enzymes of human liver microsomes (Homo sapiens, UniProt P16662); experiment: Inhibition of zidovudine glucuronidation in human liver microsomes; type: biochemical; conditions: liver lot 062101
T3 construct: residual metabolism (percentage of control), zidovudine glucuronidation; other: liver lot 062101; residual metabolism (percentage of control), zidovudine glucuronidation; residual metabolism (percentage of control)
T3 sequence (P16662 1-529): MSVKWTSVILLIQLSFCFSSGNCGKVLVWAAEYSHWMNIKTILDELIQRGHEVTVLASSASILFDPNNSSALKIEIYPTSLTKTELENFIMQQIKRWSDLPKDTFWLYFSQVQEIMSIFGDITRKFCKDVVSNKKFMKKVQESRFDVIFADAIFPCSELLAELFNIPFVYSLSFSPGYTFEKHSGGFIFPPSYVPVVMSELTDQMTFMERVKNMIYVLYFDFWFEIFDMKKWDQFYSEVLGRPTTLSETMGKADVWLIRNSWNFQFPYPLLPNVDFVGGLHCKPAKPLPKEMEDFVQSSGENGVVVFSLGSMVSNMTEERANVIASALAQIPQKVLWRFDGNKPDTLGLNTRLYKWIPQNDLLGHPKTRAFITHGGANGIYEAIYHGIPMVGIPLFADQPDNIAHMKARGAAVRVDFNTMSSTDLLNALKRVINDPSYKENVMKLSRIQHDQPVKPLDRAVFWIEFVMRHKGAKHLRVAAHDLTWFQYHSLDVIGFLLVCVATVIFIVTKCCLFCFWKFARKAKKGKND
Procedure: Compounds were eluted using a binary solvent gradient system where solvent A was dilute phosphoric acid (pH 3) and solvent B was acetonitrile.
Standardized incubations utilized 500 μM zidovudine substrate, 1 mg/ml microsomal protein, 5 mM UDPGA and a 30 min incubation time. […] Int.

UGT1A3 = target: T4, UGT1A3 (Homo sapiens, UniProt P35503); experiment: Inhibition of raloxifene glucuronidation by recombinant UGT1A3 Supersomes; conditions: for activity at 15 min, 10 µM / activity at 15 min, 25 µM / activity at 15 min, 50 µM: human; for activity at 15 min, 10 µM: inhibitor 10 μM; for activity at 15 min, 25 µM: inhibitor 25 μM; for activity at 15 min, 50 µM: inhibitor 50 μM
T4 sequence (P35503 29-534): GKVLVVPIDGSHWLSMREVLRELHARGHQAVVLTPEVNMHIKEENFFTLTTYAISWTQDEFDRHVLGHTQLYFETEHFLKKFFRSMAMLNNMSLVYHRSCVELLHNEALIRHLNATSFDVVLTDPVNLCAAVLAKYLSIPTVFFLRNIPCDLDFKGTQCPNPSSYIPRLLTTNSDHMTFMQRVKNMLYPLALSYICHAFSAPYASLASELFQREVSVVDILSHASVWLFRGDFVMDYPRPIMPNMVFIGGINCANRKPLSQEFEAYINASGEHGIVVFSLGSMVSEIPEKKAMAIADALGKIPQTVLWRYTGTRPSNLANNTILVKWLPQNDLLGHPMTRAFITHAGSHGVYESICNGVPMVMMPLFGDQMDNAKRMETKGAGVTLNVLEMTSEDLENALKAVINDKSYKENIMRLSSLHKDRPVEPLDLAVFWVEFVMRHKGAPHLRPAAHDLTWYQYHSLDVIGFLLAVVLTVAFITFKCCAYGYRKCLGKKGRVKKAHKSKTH
Procedure: as §1

[3] = system: UGT enzymes of human liver microsomes; experiment: Inhibition of raloxifene glucuronidation (G1, G2) in human liver microsomes; type: biochemical; conditions: for % of control metabolism (SD, n = 3), raloxifene glucuronide G1 / % of control metabolism (SD, n = 3), raloxifene glucuronide G2: human liver microsomes 250 μg/ml, 15 min
Description: Compounds were eluted using a binary solvent gradient system. […] Solvent B was methanol. […] Detection was at 280 nm.

[4] = Supersomes with recombinant human UGT1A3, pH 7.5, probe raloxifene 50 μM, formation of glucuronide G1, % of control metabolism, raloxifene G1, UGT1A3
[5] = Supersomes with recombinant human UGT1A3, pH 7.5, probe raloxifene 50 μM, formation of glucuronide G2, % of control metabolism, raloxifene G2, UGT1A3
[6] = recombinant UGT1A3 Supersomes, pH 7.5, probe raloxifene 50 μM (formation of glucuronide G1), Inhibition of raloxifene glucuronidation, G1, UGT1A3, G1, raloxifene 50 μM, 250 μg/ml Supersomes, 1 mM UDPGA, 15 min
[7] = recombinant UGT1A3 Supersomes, pH 7.5, probe raloxifene 50 μM (formation of glucuronide G2), Inhibition of raloxifene glucuronidation, G2, UGT1A3, G2, raloxifene 50 μM, 250 μg/ml Supersomes, 1 mM UDPGA, 15 min
[8] = inhibitor 10 μM, raloxifene 50 μM
[9] = inhibitor 25 μM, raloxifene 50 μM
[10] = inhibitor 50 μM, raloxifene 50 μM
[11] = inhibitor 100 μM, raloxifene 50 μM
[12] = liver lot 032101, inhibitor 50 μM
[13] = liver lot 062101, inhibitor 50 μM
[14] = liver lot 083000, inhibitor 50 μM
[15] = raloxifene 50 μM, inhibitor 10 μM
[16] = raloxifene 50 μM, inhibitor 25 μM
[17] = raloxifene 50 μM, inhibitor 50 μM
[18] = raloxifene 50 μM, inhibitor 100 μM

CCCCCCCCOC(=O)c1cc(O)c(O)c(O)c1 [Octyl gallate]
pIC50 ([1]; 7-HFC 50 μM, 1 mM UDPGA, 15 min): ~4.12 | percentage of control metabolism, 7-HFC glucuronidation ([1]; inhibitor 25 μM): 86 (1) % | % of control metabolism (SD, n = 3), 7-HFC glucuronidation ([1]; inhibitor 25 μM, 7-HFC 50 μM, 15 min): 86 (1) % | percentage of control metabolism, 7-HFC glucuronidation ([1]; inhibitor 50 μM): 65 (0) % | % of control metabolism (SD, n = 3), 7-HFC glucuronidation ([1]; inhibitor 50 μM, 7-HFC 50 μM, 15 min): 65 (0) % | percentage of control metabolism, 7-HFC glucuronidation ([1]; inhibitor 100 μM): 26 (1) % and 29 (1) % | % of control metabolism (SD, n = 3), 7-HFC glucuronidation ([1]; inhibitor 100 μM, 7-HFC 50 μM, 15 min): 26 (1), % and 29 (1) % | percentage of control metabolism, 7-HFC glucuronidation ([1]; inhibitor 200 μM): 6 (0) % | % of control metabolism (SD, n = 3), 7-HFC glucuronidation ([1]; inhibitor 200 μM, 7-HFC 50 μM, 15 min): 6 (0) % | percentage of control metabolism, 7-HFC glucuronidation ([1]; inhibitor 500 μM): 0.1 (0.1) % | % of control metabolism (SD, n = 3), 7-HFC glucuronidation ([1]; inhibitor 500 μM, 7-HFC 50 μM, 15 min): 0.1 (0.1) % | inhibition of raloxifene glucuronidation, in words (UGT1A9; UGT1A9): very poor inhibitor | activity at 15 min, 50 µM (UGT1A9; formation of glucuronide G1, % of control metabolism, raloxifene G1, UGT1A9, inhibitor 50 μM): 84% | activity at 15 min, 50 µM (UGT1A9; formation of glucuronide G2, % of control metabolism, raloxifene G2, UGT1A9, inhibitor 50 μM): 70% | Inhibition of raloxifene glucuronidation, UGT1A9, second line per inhibitor (G2) (UGT1A9; second line (G2, metabolite not given), inhibitor 50 μM, raloxifene 50 μM, 250 μg/ml Supersomes, 1 mM UDPGA, 15 min): 70 (4) | residual metabolism (percentage of control), zidovudine glucuronidation ([2]; inhibitor 500 μM): 54 (3) % | residual metabolism (percentage of control), zidovudine glucuronidation ([2]; inhibitor 1000 μM): 17 (1) % | inhibition of raloxifene glucuronidation, in words (UGT1A3; UGT1A3): excellent inhibitor | activity at 15 min, 10 µM (UGT1A3; [4]): 61% | activity at 15 min, 25 µM (UGT1A3; [4]): 28% | activity at 15 min, 50 µM (UGT1A3; [4]): 12% | activity at 15 min, 10 µM (UGT1A3; [5]): 60% | activity at 15 min, 25 µM (UGT1A3; [5]): 31% | activity at 15 min, 50 µM (UGT1A3; [5]): 13% | activity at 15 min, 10 µM (UGT1A3; [6]): 61% | activity at 15 min, 25 µM (UGT1A3; [6]): 28% | activity at 15 min, 50 µM (UGT1A3; [6]): 12% | activity at 15 min, 10 µM (UGT1A3; [7]): 60% | activity at 15 min, 25 µM (UGT1A3; [7]): 31% | activity at 15 min, 50 µM (UGT1A3; [7]): 13% | % of control metabolism (SD, n = 3), raloxifene glucuronide G1 [3, 8]: 68 (3) % | % of control metabolism (SD, n = 3), raloxifene glucuronide G1 [3, 9]: 48 (6) % | % of control metabolism (SD, n = 3), raloxifene glucuronide G1 [3, 10]: 37 (2) % | % of control metabolism (SD, n = 3), raloxifene glucuronide G1 [3, 11]: 31 (3) % | % of control metabolism (SD, n = 3), raloxifene glucuronide G2 [3, 8]: 75 (8) % | % of control metabolism (SD, n = 3), raloxifene glucuronide G2 [3, 9]: 59 (5) % | % of control metabolism (SD, n = 3), raloxifene glucuronide G2 [3, 10]: 46 (3) % | % of control metabolism (SD, n = 3), raloxifene glucuronide G2 [3, 11]: 52 (7) % | % of control metabolism, raloxifene G1 [3, 12]: 45 (1) % | % of control metabolism, raloxifene G2 [3, 12]: 59 (3) % | % of control metabolism, raloxifene G1 [3, 13]: 55 (5) % | % of control metabolism, raloxifene G2 [3, 13]: 45 (6) % | % of control metabolism, raloxifene G1 [3, 14]: 37 (2) % | % of control metabolism, raloxifene G2 [3, 14]: 46 (3) % | % of control metabolism, raloxifene G1 [3, 15]: 68 (3) % | % of control metabolism, raloxifene G2 [3, 15]: 75 (8) % | % of control metabolism, raloxifene G1 [3, 16]: 48 (6) % | % of control metabolism, raloxifene G2 [3, 16]: 59 (5) % | % of control metabolism, raloxifene G1 [3, 17]: 37 (2) % | % of control metabolism, raloxifene G2 [3, 17]: 46 (3) % | % of control metabolism, raloxifene G1 [3, 18]: 31 (3) % | % of control metabolism, raloxifene G2 [3, 18]: 52 (7) %
